Usually Km stands for the substrate concentration at which the rate is half of its maximum.

Data on 14 molecules can be found in patent publication US20120258938A1, “Enzymatic Production or Chemical Synthesis and Uses for 5,7-Dienes and UVB Conversion Products Thereof” (priority 2008, published 2012).

The test system of data set [1] is Human dermal fibroblasts. Put plainly: TGF-b1 induced collagen protein production by dermal fibroblasts. It is filed as cell-based. The conditions noted are these: collagenase sensitive protein; for Collagen CPM/Well (mean ± SEM) × 10^−5 FB: hrTGF-b1 5 ng/ml, secosteroids at 10^−10M, 3[H]-proline. As for the experimental part: Human dermal fibroblasts grown from explant skin cultures at less than 10 subpassages were plated at 5×10^4 cells per well in 24 well Costar tissue culture plates and were grown to confluency. Complete MEM was then changed to serum free Complete MEM without non-essential amino acids. After 24 hours, culture medium was changed (450 μl/well) to the same and secosteroids listed in Table 14 were added in 10 μl absolute alcohol (ETOH) to a final concentration of 10^−9 and M, 3 replicate wells each. Vehicle control wells (n=6) contained 10 μl (ETOH). After 2 hour pre-incubation, hr TGF-b1 (R and D systems) was added to each well except ETOH wells at a final concentration of 5 ng/ml. After 48 hours of culture, plate wells were paused with 1μ Cl ^3[H]-proline. After 24 hours, culture supernatants were harvested and collagenase sensitive protein was determined as previously described (44).

Data set [2] concerns human dermal fibroblast line. As to the kind of experiment: TGF-b1 induced hyaluronan synthesis by dermal fibroblasts. The conditions noted are these: hrTGF-b1 5 ng/ml, secosteroids at 10^−10M. It is filed as cell-based. An excerpt: There were found no significant differences in fibroblast numbers per well and no significant differences in trypan blue exclusion between control wells vs those with secosteroids range 95-100% (data not shown).

The subject of data set [3] is SK Mel 188 human melanoma cells. Put plainly: Soft agar colony formation, SKMEL 188 melanoma. The conditions noted are these: for colony formation in soft agar versus vehicle control: SKMEL 188, 10 nM. It is filed as cell-based. As for the experimental part:
Growth and survival of prostate cancer cells (PC3) and melanoma cells SKMEL 188 and AbC1 was determined by following their ability to form colonies in soft agar. Cells growing in monolayer culture were trypsinized and resuspended (1,000 cells/well) in 0.25 ml medium containing 0.4% agarose and 5% charcoal stripped serum (HyClone).
Cell suspensions were added to 0.8% agar layer in 24 well plates. […] Each condition was tested in quadruplicate. An ethanol solvent control (amount of ethanol equivalent to test) as well as a media-only control was included in the assay. Cells were allowed to grow at 37° with 5% CO2 over two weeks with secosteroids in fresh media (100 μL) being added after every 72 h. Soft agar colonies were scored and stained with 0.5 mg/ml MTT reagent (Promega), 500 μL/well after two weeks. Colonies were then counted under the microscope and number of units was calculated as number of colonies formed divided by the number of cells seeded×100.

Data set [4] deals with T1, cytochrome P450scc (Bos taurus, UniProt P00189).
T1 sequence (P00189 40-520): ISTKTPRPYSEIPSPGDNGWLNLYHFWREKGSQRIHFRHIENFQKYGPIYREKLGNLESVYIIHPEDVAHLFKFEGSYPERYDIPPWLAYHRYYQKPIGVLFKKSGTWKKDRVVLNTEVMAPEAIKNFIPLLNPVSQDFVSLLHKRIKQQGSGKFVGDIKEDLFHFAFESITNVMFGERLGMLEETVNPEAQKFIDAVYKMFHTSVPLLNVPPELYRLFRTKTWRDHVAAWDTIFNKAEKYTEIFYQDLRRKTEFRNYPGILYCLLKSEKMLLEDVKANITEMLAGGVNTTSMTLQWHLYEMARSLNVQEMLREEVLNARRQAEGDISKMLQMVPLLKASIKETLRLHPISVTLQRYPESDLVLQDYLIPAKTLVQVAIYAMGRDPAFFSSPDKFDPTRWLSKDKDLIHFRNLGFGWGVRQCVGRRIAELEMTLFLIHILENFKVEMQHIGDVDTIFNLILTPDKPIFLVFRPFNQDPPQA
Put plainly: Metabolism by cytochrome P450scc in cyclodextrin. As for the experimental part: Adrenodoxin was expressed in Escherichia coli and purified as described before (41). […] Metabolites were analysed using a Perkin Elmer HPLC equipped with a C18 column (Brownlee Aquapore, 22 cm×4.6 mm, particle size 7 μm).

In data set [5] the test system is HaCaT keratinocytes. Put plainly: [3H]-thymidine DNA synthesis in HaCaT keratinocytes. It is filed as cell-based, human. The conditions noted are these: HaCaT. As for the experimental part: HaCaT keratinocytes were plated in 96-well plates at the density of 10,000 cells/well in DMEM (Cellgro, Herndon Va.) containing 5% charcoal treated fetal bovine serum (Hyclone, Logan, Utah), 1% antibiotic solution (PSA, Sigma, St. Louis, […].). Next day, media were changed and vehicle (ethanol) or secosteroids added. Cells were incubated with compounds for 48 hours. [^3H]-thymidine (Amersham Biosciences, Picataway, N.Y.) was added to the final concentration of 1 μCi/mL medium for last 12 hours of incubation. Media were then discarded, cells detached with trypsin and harvested on a glass fiber filter (Packard, Meriden, Calif.). Radioactivity was measured with a beta counter (Direct Beta-Counter Matrix 9600; Packard).
To measure DNA synthesis, keratinocytes, melanoma or prostate cancer cells were plated in 96-well plates. After overnight incubation tested compounds were added to the medium to achieve final concentrations 10^−7-10^−10 [M]. 100 μl of medium per well containing vitamin D3 compound was added to the cells. After 36 hours of incubation [3H]-thymidine (specific activity 88.0 Ci/mmol; Amersham Biosciences, Picataway, N.Y., USA) was added at 1 μCi/mL medium. After 12 hours, media were discarded, cells detached with trypsin and harvested on a glass fiber filter (Packard, Meriden, Calif., USA). 3H-radioactivity was measured with a beta counter (Direct Beta-Counter Matrix 9600; Packard).
HaCaT keratinocytes were plated out in 24-well plates, 50,000 cells/well. […] After 4 h media were discarded, cells washed with cold phosphate-buffered saline and incubated in 10% trichloroacetic acid for 30 min. Cells were washed again with phosphate-buffered saline, 100 μl 1.0 M NaOH was added to each well and plates incubated for 30 min at 30° C. The supernatant was collected and the ^3H-radioactivity measured by scintillation counting using a Direct Beta-Counter Matrix 9600 (Packard). The [^3H]-thymidine incorporation into DNA was measured separately for each well and the results entered into the calculation as the mean of 6 wells for each condition in a series of six experiments (n=36). Data were analyzed with GraphPad Prizm Version 4.0 (GraphPad Software Inc., San Diego, Calif., USA) using t tests. Differences were considered significant when p<0.05.

With 1,25 (OH)2 D3, the “Collagen CPM/Well (mean ± SEM) × 10^−5 FB” value in data set [1] was determined as 310 ± 100 CPM/Well × 10^−5 FB. Besides, the “Hyaluronan CPM/Well (mean ± SEM) × 10^−5 FB” value in data set [2] is reported as 297 ± 18 CPM/Well × 10^−5 FB.

For `C=C1C(=CC=C2CCCC3(C)C2CCC3C(C)(O)CCC(O)C(C)C)CC(O)CC1O` (stereo not drawn) [1,20,24(OH)2D3, (5Z,7E)-9,10-secocholesta-5,7,10(19)-triene-1α,3β,20,24-tetrol], the “colony formation in soft agar versus vehicle control” value in data set [3] was “greatly inhibited colony formation”.

For the molecule `C=C1C(=CC=C2CCCC3(C)C2CCC3C(C)(O)CCCC(C)(C)O)CC(O)CC1O` (stereo not shown) [1,20,25(OH)2D3, 1,20,25-trihydroxycholecalciferol], the “colony formation in soft agar versus vehicle control” value in data set [3] was “greatly inhibited colony formation”.

With `C=C1/C(=C\C=C2/CCC[C@]3(C)[C@@H]([C@H](C)CCCC(C)C)CC[C@@H]23)C[C@@H](O)C[C@@H]1O` [1α-hydroxycholecalciferol, (5Z,7E)-9,10-secocholesta-5,7,10(19)-triene-1α,3β-diol], in data set [4], the Michaelis-Menten constant (Km) was determined as 41 ± 6 µM. Also, in data set [4] (substrate in 0.45% cyclodextrin), the kcat amounted to 1.3±0.1 mol/min/mol P450scc.

With `CC(O)C1(O)CCC2C3=CC=C4CC(O)CCC4(C)C3CCC21C` (stereo not shown) [17,20 R(OH)27DHP], in data set [1], the “Collagen CPM/Well (mean ± SEM) × 10^−5 FB” value was found to be 173 ± 11 CPM/Well × 10^−5 FB. For the same molecule, the “Hyaluronan CPM/Well (mean ± SEM) × 10^−5 FB” value in data set [2] came out at 607 ± 127 CPM/Well × 10^−5 FB.

As to `CC(O)C1(O)CCC2C3=CC=C4CC(O)CCC4(C)C3CCC21C` (stereo not shown) [17,20 S(OH)27DHP], in data set [1], the “Collagen CPM/Well (mean ± SEM) × 10^−5 FB” value came to 213 ± 17 CPM/Well × 10^−5 FB. Besides, the “Hyaluronan CPM/Well (mean ± SEM) × 10^−5 FB” value in data set [2] was 227 ± 53 CPM/Well × 10^−5 FB.

On to `CC(O)C1(O)CCC2C3=CC=C4CC(O)CCC4(C)C3CCC21C` (stereo not shown) [17,20(OH)27DHP], for which the “TGF-b1 induced collagen protein production” value in data set [1] ([3H]-proline) is “inhibited TGF-b1 induced collagen protein production”.

As for `C[C@]12CC[C@H]3C(=CC=C4C[C@@H](O)CC[C@@]43C)[C@@H]1CC[C@@H]2C(=O)O` [17-COOH, (5Z,7E)-3β-hydroxy-androsta-5,7-diene-17β-carboxylic acid], the DNA synthesis entry in data set [5] (72 hrs, 0.01-100 nM) is “DNA synthesis was inhibited at all concentrations”.

With `C=C1CCC(O)CC1=CC=C1CCCC2(C)C1CCC2(O)C(C)(O)CC(O)CC(C)C` (stereo not drawn) [17α,20,23-trihydroxycholecalciferol, (5Z,7E)-9,10-secocholesta-5,7,10(19)-triene-3β,17α,20,23-tetrol], the “keratinocyte proliferation compared with 1α,25-dihydroxycholecalciferol” value in data set [5] (48 h) was “inhibit keratinocyte proliferation more potently than the control compound”.

Take `C=C1CCC(O)CC1=CC=C1CCCC2(C)C1CCC2C(C)(O)CCC(O)C(C)C` (stereo not drawn) [20,24(OH)2D3, (5Z,7E)-9,10-secocholesta-5,7,10(19)-triene-3β,20,24-triol]: the “colony formation in soft agar versus vehicle control” value in data set [3] is given as “greatly inhibited colony formation”.

Regarding `C=C1CCC(O)CC1=CC=C1CCCC2(C)C1CCC2C(C)(O)CCCC(C)(C)O` (stereo not drawn) [20,25(OH)2D3, (5Z,7E)-9,10-secocholesta-5,7,10(19)-triene-3β,20,25-triol], the “colony formation in soft agar versus vehicle control” value in data set [3] is given as “greatly inhibited colony formation”.

As to `C=C1CCC(O)CC1=CC=C1CCCC2(C)C1CCC2C(C)(O)CCCC(C)CO` (stereo not drawn) [20,26(OH)2D3, (5Z,7E)-9,10-secocholesta-5,7,10(19)-triene-3β,20,26-triol], the “colony formation in soft agar versus vehicle control” value in data set [3] is reported as “greatly inhibited colony formation”.

On to `CC(=O)[C@H]1CC[C@H]2C3=CC=C4C[C@@H](O)CC[C@]4(C)[C@H]3CC[C@]12C` [compound 1, 3β-hydroxypregna-5,7-dien-20-one], for which the “Collagen CPM/Well (mean ± SEM) × 10^−5 FB” value in data set [1] turned out to be 292 ± 31 CPM/Well × 10^−5 FB. Further, in data set [2], the “Hyaluronan CPM/Well (mean ± SEM) × 10^−5 FB” value is 230 ± 34 CPM/Well × 10^−5 FB.

On to “(5Z,7E)-9,10-secoandrosta-5,7,10(19)-trien-3β-ol [aD3]”, for which the “colony formation on soft agar” value in data set [3] (SKMEL-188, dose dependent) is “suppress colony formation on soft agar”.
